This note sets out measurements from patent US20110105541A1, “ALKYL SUBSTITUTED ARYLINDENOPYRIMIDINES AND THEIR USE AS HIGHLY SELECTIVE ADENOSINE A2a RECEPTOR ANTAGONISTS” (priority 2009, published 2011).

Molecules are shown by their SMILES.

The target of assay [1] is T1, human adenosine A2A receptor (Homo sapiens, UniProt P29274).
T1 construct: expressed in transfected cells; host or cells: CHO-K1
Put plainly: Adenosine A2A receptor functional assay (A2AGAL2), cAMP inducible beta-galactosidase reporter, NECA challenge. It counts as cell-based. The settings on record: for IC50: CHO-K1 cells overexpressing human A2A receptor, antagonist curve against 15 nM NECA; for A1/A2A: ratio of A1Gal2 to A2AGal2 values (selectivity for A2A over A1). As to the method: Adenosine A2 Receptor Functional Assay (A2AGAL2)
To initiate the functional assay, cryopreserved CHO—K1 cells overexpressing the human adenosine A2A receptor and containing a cAMP inducible beta-galactosidase reporter gene were thawed, centrifuged, DMSO containing media removed, and then seeded with fresh culture media into clear 384-well tissue culture treated plates (BD #353961) at a concentration of 10K cells/well. Prior to assay, these plates were cultured for two days at 37° C., 5% CO2, 90% Rh. On the day of the functional assay, culture media was removed and replaced with 45 μL assay medium (Hams/F-12 Modified (Mediatech # 10-080CV) supplemented w/0.1% BSA). Test compounds were diluted and 11 point curves created at a 1000× concentration in 100% DMSO. Immediately after addition of assay media to the cell plates, […] of the appropriate test compound antagonist or agonist control curves were added to cell plates using a Cartesian Hummingbird. Compound curves were allowed to incubate at room temperature on cell plates for approximately 15 minutes before addition of a 15 nM NECA (Sigma E2387) agonist challenge (5 μL volume). A control curve of NECA, a DMSO/Media control, and a single dose of Forskolin (Sigma F3917) were also included on each plate. After additions, cell plates were allowed to incubate at 37° C., 5% CO2, 90% Rh for 5.5-6 hours. After incubation, media were removed, and cell plates were washed 1×50 μL with DPBS w/o Ca & Mg (Mediatech 21-031-CV). Into dry wells, 20 μL of 1× Reporter Lysis Buffer (Promega E3971 (diluted in dH2O from 5× stock)) was added to each well and plates frozen at −20° C. overnight. For β-galactosidase enzyme colorimetric assay, plates were thawed out at room temperature and 20 μL 2× assay buffer (Promega) was added to each well. Color was allowed to develop at 37° C., 5% CO2, 90% Rh for 1-1.5 h or until reasonable signal appeared. The colorimetric reaction was stopped with the addition of 60 μL/well 1M sodium carbonate. Plates were counted at 405 nm on a SpectraMax Microplate Reader (Molecular Devices). Data was analyzed in Microsoft Excel and IC/EC50 curves were fit using a standardized macro.

Assay [2] concerns the target T2, human adenosine A1 receptor (Homo sapiens, UniProt P30542).
T2 construct: expressed in transfected cells; host or cells: CHO-K1
T2 sequence (P30542 1-326): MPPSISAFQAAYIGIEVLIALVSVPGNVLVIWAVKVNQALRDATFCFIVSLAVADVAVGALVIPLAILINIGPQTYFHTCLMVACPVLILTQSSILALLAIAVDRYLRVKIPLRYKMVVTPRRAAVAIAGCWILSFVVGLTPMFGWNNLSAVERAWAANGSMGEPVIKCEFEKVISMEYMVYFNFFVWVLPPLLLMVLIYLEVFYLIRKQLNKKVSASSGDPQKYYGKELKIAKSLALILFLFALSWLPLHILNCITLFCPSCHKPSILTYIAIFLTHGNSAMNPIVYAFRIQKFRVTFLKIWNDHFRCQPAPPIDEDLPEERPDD
Put plainly: Adenosine A1 receptor functional assay (A1GAL2), cAMP inducible beta-galactosidase reporter, r-PIA/Forskolin challenge. The settings on record: CHO-K1 cells overexpressing human A1 receptor; antagonist curve against 4 nM r-PIA/1 uM Forskolin. Format: cell-based. The method, then:
Adenosine A1 Receptor Functional Assay (A1GAL2)
To initiate the functional assay, cryopreserved CHO—K^1 cells overexpressing the human adenosine A1 receptor and containing a cAMP inducible beta-galactosidase reporter gene were thawed, centrifuged, DMSO containing media removed, and then seeded with fresh culture media into clear 384-well tissue culture treated plates (BD #353961) at a concentration of 10K cells/well. Prior to assay, these plates were cultured for two days at 37° C., 5% CO2, 90% Rh. On the day of the functional assay, culture media was removed and replaced with 45 μL assay medium (Hams/F-12 Modified (Mediatech # 10-080CV) supplemented w/0.1% BSA). Test compounds were diluted and 11 point curves created at a 1000× concentration in 100% DMSO. Immediately after addition of assay media to the cell plates, […] of the appropriate test compound antagonist or agonist control curves were added to cell plates using a Cartesian Hummingbird. Compound curves were allowed to incubate at room temperature on cell plates for approximately 15 minutes before addition of a 4 nM r-PIA (Sigma P4532)/1 uM Forskolin (Sigma F3917) agonist challenge (5 μL volume). A control curve of r-PIA in 1 uM Forskolin, a DMSO/Media control, and a single dose of Forskolin were also included on each plate. After additions, cell plates were allowed to incubate at 37° C., 5% CO2, 90% Rh for 5.5-6 hours. After incubation, media was removed, and cell plates were washed 1×50 μL with DPBS w/o Ca & Mg (Mediatech 21-031-CV). Into dry wells, 20 μL of 1× Reporter Lysis Buffer (Promega E3971 (diluted in dH2O from 5× stock)) was added to each well and plates frozen at −20° C. overnight. For β-galactosidase enzyme colorimetric assay, plates were thawed out at room temperature and 20 μL 2× assay buffer (Promega) was added to each well. Color was allowed to develop at 37° C., 5% CO2, 90% Rh for 1-1.5 h or until reasonable signal appeared. […] Plates were counted at 405 nm on a SpectraMax Microplate Reader (Molecular Devices). Data was analyzed in Microsoft Excel and IC/EC50 curves were fit using a standardized macro.

T1 sequence (P29274 whole entry): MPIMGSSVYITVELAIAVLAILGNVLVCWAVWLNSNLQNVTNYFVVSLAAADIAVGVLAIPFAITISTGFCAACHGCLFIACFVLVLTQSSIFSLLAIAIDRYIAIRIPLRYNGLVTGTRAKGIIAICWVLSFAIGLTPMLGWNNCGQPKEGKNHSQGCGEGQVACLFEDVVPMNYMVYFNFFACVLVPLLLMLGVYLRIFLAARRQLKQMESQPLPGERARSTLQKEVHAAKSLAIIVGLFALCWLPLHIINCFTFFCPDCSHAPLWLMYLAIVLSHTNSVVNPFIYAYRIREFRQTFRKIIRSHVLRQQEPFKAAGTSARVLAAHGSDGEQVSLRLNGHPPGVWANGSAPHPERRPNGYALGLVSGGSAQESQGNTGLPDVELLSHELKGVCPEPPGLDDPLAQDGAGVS

Consider `Cc1nc(C)c(Cc2cccc3c2-c2nc(N)nc(-c4ccc(F)cc4)c2C3=O)s1` [Example 1, 2-Amino-9-(2,4-dimethyl-thiazol-5-ylmethyl)-4-(4-fluoro-phenyl)-indeno[1,2-d]pyrimidin-5-one], for which, in assay [1], 11.9 nM corresponded to half-maximal inhibition (IC50) and the A1/A2A was 276.249. Also, the IC50 in assay [2] is 3280 nM.
Taken in the same sequence, the figures for `Cc1noc(C)c1Cc1cccc2c1-c1nc(N)nc(-c3ccc(F)cc3)c1C2=O` [Example 3, 2-Amino-9-(3,5-dimethyl-isoxazol-4-ylmethyl)-4-(4-fluoro-phenyl)-indeno[1,2-d]pyrimidin-5-one] were 41.3 nM, 64.5654 and 2670 nM.
The corresponding values for `Nc1nc(-c2ccc(F)cc2)c2c(n1)-c1c(Cc3cn[nH]c3)cccc1C2=O` [Example 2, 2-Amino-4-(4-fluoro-phenyl)-9-(1H-pyrazol-4-ylmethyl)-indeno[1,2-d]pyrimidin-5-one] are 0.75 nM, 195.975 and 147 nM.

One may read the IC50 as the concentration that inhibits the measured activity by half. A lower IC50 goes with greater potency in that assay.
